According to US20070167631A1, “Novel herbicides” (priority 2003, published 2007):

These compounds were tested on Panicum (assay: Pre-emergence herbicidal action (Example B1)). Details: 250 g/ha, after 4 weeks, rating scale 10=total damage, 0=no action.
Assay type: in vivo
Description: (§1) Monocotyledonous and dicotyledonous test plants are sown in standard soil in pots or seed trays. Immediately after sowing, the test compounds, in the form of an aqueous suspension (prepared from a wettable powder (Example F3, b) according to WO 97/34485) or in the form of an emulsion (prepared from an emulsifiable concentrate (Example F1, c) according to WO 97/34485), are applied by spraying in a concentration of 250 g/ha. The test plants are then grown in a greenhouse under optimum conditions. After a test duration of 4 weeks, the test is evaluated in accordance with a scale of eleven ratings (10=total damage, 0=no action). Ratings of from 10 to 7 (especially from 10 to 8) indicate very good to good herbicidal action.

`COCCOCc1nc(C(=O)C2=C(O)CCCC2=O)ccc1C(F)(F)F` [Compound 1.126] and `CC1(C)C(=O)C(C(=O)c2ccc(C(F)(F)F)c(OC3CCOC3)n2)=C(O)C(C)(C)C1=O` (stereo not drawn) [Compound 2.021] are the same in “Pre-emergence action: Panicum” value: 9 for the first, 9 for the second.

For `CC1(C)C(=O)C(C(=O)c2ccc(C(F)(F)F)c(N3CCOCC3)n2)=C(O)C(C)(C)C1=O` [Compound 2.073], the “Pre-emergence action: Panicum” value was 10.

These compounds were tested on Scirpus (assay: Pre-emergence herbicidal action (Example B1)). Details: 250 g/ha, after 4 weeks, rating scale 10=total damage, 0=no action.
Assay type: in vivo
Description: as §1

First: COCCOCc1nc(C(=O)C2=C(O)CCCC2=O)ccc1C(F)(F)F [Compound 1.126]
Second: CC1(C)C(=O)C(C(=O)c2ccc(C(F)(F)F)c(OC3CCOC3)n2)=C(O)C(C)(C)C1=O (stereo not drawn) [Compound 2.021]
The “Pre-emergence action: Scirpus” value of the first is higher: 8 for the first, 7 for the second.

For `CC1(C)C(=O)C(C(=O)c2ccc(C(F)(F)F)c(N3CCOCC3)n2)=C(O)C(C)(C)C1=O` [Compound 2.073], the “Pre-emergence action: Scirpus” value was 4.

Each compound was assayed on Echinochloa (assay: Pre-emergence herbicidal action (Example B1)). Details: 250 g/ha, after 4 weeks, rating scale 10=total damage, 0=no action.
Assay type: in vivo
Description: as §1

First: COCCOCc1nc(C(=O)C2=C(O)CCCC2=O)ccc1C(F)(F)F [Compound 1.126]
Second: CC1(C)C(=O)C(C(=O)c2ccc(C(F)(F)F)c(OC3CCOC3)n2)=C(O)C(C)(C)C1=O (stereo not drawn) [Compound 2.021]
The “Pre-emergence action: Echinochloa” value of the first is higher: 2 for the first, 0 for the second.

For `CC1(C)C(=O)C(C(=O)c2ccc(C(F)(F)F)c(N3CCOCC3)n2)=C(O)C(C)(C)C1=O` [Compound 2.073], the “Pre-emergence action: Echinochloa” value was 9.

These compounds were tested on Chenopodium (assay: Pre-emergence herbicidal action (Example B1)). Details: 250 g/ha, after 4 weeks, rating scale 10=total damage, 0=no action.
Assay type: in vivo
Description: as §1

First: COCCOCc1nc(C(=O)C2=C(O)CCCC2=O)ccc1C(F)(F)F [Compound 1.126]
Second: CC1(C)C(=O)C(C(=O)c2ccc(C(F)(F)F)c(OC3CCOC3)n2)=C(O)C(C)(C)C1=O (stereo not drawn) [Compound 2.021]
The “Pre-emergence action: Chenopodium” value of the first is higher: 10 for the first, 9 for the second.

With `CC1(C)C(=O)C(C(=O)c2ccc(C(F)(F)F)c(N3CCOCC3)n2)=C(O)C(C)(C)C1=O` [Compound 2.073] the “Pre-emergence action: Chenopodium” value was 9.

What follows are compounds tested on Digitaria (assay: Pre-emergence herbicidal action (Example B1)). Details: 250 g/ha, after 4 weeks, rating scale 10=total damage, 0=no action.
Assay type: in vivo
Description: as §1

Going from `COCCOCc1nc(C(=O)C2=C(O)CCCC2=O)ccc1C(F)(F)F` [Compound 1.126] to `CC1(C)C(=O)C(C(=O)c2ccc(C(F)(F)F)c(OC3CCOC3)n2)=C(O)C(C)(C)C1=O` (stereo not drawn) [Compound 2.021], the “Pre-emergence action: Digitaria” value falls from 6 to 3.

For `CC1(C)C(=O)C(C(=O)c2ccc(C(F)(F)F)c(N3CCOCC3)n2)=C(O)C(C)(C)C1=O` [Compound 2.073], the “Pre-emergence action: Digitaria” value was 7.

These compounds were tested on Abutilon (assay: Pre-emergence herbicidal action (Example B1)). Details: 250 g/ha, after 4 weeks, rating scale 10=total damage, 0=no action.
Assay type: in vivo
Description: as §1

Going from `COCCOCc1nc(C(=O)C2=C(O)CCCC2=O)ccc1C(F)(F)F` [Compound 1.126] to `CC1(C)C(=O)C(C(=O)c2ccc(C(F)(F)F)c(OC3CCOC3)n2)=C(O)C(C)(C)C1=O` (stereo not drawn) [Compound 2.021], the “Pre-emergence action: Abutilon” value falls from 10 to 9.

For `CC1(C)C(=O)C(C(=O)c2ccc(C(F)(F)F)c(N3CCOCC3)n2)=C(O)C(C)(C)C1=O` [Compound 2.073], the “Pre-emergence action: Abutilon” value was 9.

Each compound was assayed on Amaranthus (assay: Pre-emergence herbicidal action (Example B1)). Details: 250 g/ha, after 4 weeks, rating scale 10=total damage, 0=no action.
Assay type: in vivo
Description: as §1

Going from `COCCOCc1nc(C(=O)C2=C(O)CCCC2=O)ccc1C(F)(F)F` [Compound 1.126] to `CC1(C)C(=O)C(C(=O)c2ccc(C(F)(F)F)c(OC3CCOC3)n2)=C(O)C(C)(C)C1=O` (stereo not drawn) [Compound 2.021], the “Pre-emergence action: Amaranthus” value falls from 10 to 7.

`CC1(C)C(=O)C(C(=O)c2ccc(C(F)(F)F)c(N3CCOCC3)n2)=C(O)C(C)(C)C1=O` [Compound 2.073] was tested, and the “Pre-emergence action: Amaranthus” value was 9.

These compounds were tested on Xanthium (assay: Post-emergence herbicidal action (Example B2)). Details: 250 g/ha, after about 18 days, rating scale 10=total damage, 0=no action.
Assay type: in vivo
From the text: (§2) Monocotyledonous and dicotyledonous test plants are cultivated in a greenhouse in standard soil in plastic pots and, at the 4- to 6-leaf stage, are sprayed with an aqueous suspension of the test compounds of formula I prepared from a 25% wettable powder (Example F3, b) according to WO 97/34485) or with an emulsion of the test compounds of formula I prepared from a 25% emulsifiable concentrate (Example F1, c) according to WO 97/34485), corresponding to concentrations of 125 and 250 g of active ingredient per hectare (500 litres of water per ha). The test plants are then grown on in the greenhouse under optimum conditions. After a test duration of about 18 days, the test is evaluated in accordance with a scale of eleven ratings (10=total damage, 0=no action). Ratings of from 10 to 7 (especially from 10 to 8) indicate very good to good herbicidal action.

`COCCOCc1nc(C(=O)C2=C(O)CCCC2=O)ccc1C(F)(F)F` [Compound 1.126] and `CC1(C)C(=O)C(C(=O)c2ccc(C(F)(F)F)c(OC3CCOC3)n2)=C(O)C(C)(C)C1=O` (stereo not drawn) [Compound 2.021] are the same in “Post-emergence action: Xanthium” value: 8 for the first, 8 for the second.

`CC1(C)C(=O)C(C(=O)c2ccc(C(F)(F)F)c(N3CCOCC3)n2)=C(O)C(C)(C)C1=O` [Compound 2.073] was tested, and the “Post-emergence action: Xanthium” value was 9.

Each compound was assayed on Panicum (assay: Post-emergence herbicidal action (Example B2)). Details: 250 g/ha, after about 18 days, rating scale 10=total damage, 0=no action.
Assay type: in vivo
From the text: as §2

Going from `COCCOCc1nc(C(=O)C2=C(O)CCCC2=O)ccc1C(F)(F)F` [Compound 1.126] to `CC1(C)C(=O)C(C(=O)c2ccc(C(F)(F)F)c(OC3CCOC3)n2)=C(O)C(C)(C)C1=O` (stereo not drawn) [Compound 2.021], the “Post-emergence action: Panicum” value rises from 7 to 9.

With `CC1(C)C(=O)C(C(=O)c2ccc(C(F)(F)F)c(N3CCOCC3)n2)=C(O)C(C)(C)C1=O` [Compound 2.073] the “Post-emergence action: Panicum” value was 9.

These compounds were tested on Echinochloa (assay: Post-emergence herbicidal action (Example B2)). Details: 250 g/ha, after about 18 days, rating scale 10=total damage, 0=no action.
Assay type: in vivo
From the text: as §2

Going from `COCCOCc1nc(C(=O)C2=C(O)CCCC2=O)ccc1C(F)(F)F` [Compound 1.126] to `CC1(C)C(=O)C(C(=O)c2ccc(C(F)(F)F)c(OC3CCOC3)n2)=C(O)C(C)(C)C1=O` (stereo not drawn) [Compound 2.021], the “Post-emergence action: Echinochloa” value rises from 7 to 9.

In the case of `CC1(C)C(=O)C(C(=O)c2ccc(C(F)(F)F)c(N3CCOCC3)n2)=C(O)C(C)(C)C1=O` [Compound 2.073], the “Post-emergence action: Echinochloa” value is reported as 9.

The compounds below were run on Euphorbia (assay: Post-emergence herbicidal action (Example B2)). Details: 250 g/ha, after about 18 days, rating scale 10=total damage, 0=no action.
Assay type: in vivo
From the text: as §2

Going from `COCCOCc1nc(C(=O)C2=C(O)CCCC2=O)ccc1C(F)(F)F` [Compound 1.126] to `CC1(C)C(=O)C(C(=O)c2ccc(C(F)(F)F)c(OC3CCOC3)n2)=C(O)C(C)(C)C1=O` (stereo not drawn) [Compound 2.021], the “Post-emergence action: Euphorbia” value rises from 8 to 9.

In the case of `CC1(C)C(=O)C(C(=O)c2ccc(C(F)(F)F)c(N3CCOCC3)n2)=C(O)C(C)(C)C1=O` [Compound 2.073], the “Post-emergence action: Euphorbia” value is reported as 9.

These compounds were tested on Chenopodium (assay: Post-emergence herbicidal action (Example B2)). Details: 250 g/ha, after about 18 days, rating scale 10=total damage, 0=no action.
Assay type: in vivo
From the text: as §2

`COCCOCc1nc(C(=O)C2=C(O)CCCC2=O)ccc1C(F)(F)F` [Compound 1.126] and `CC1(C)C(=O)C(C(=O)c2ccc(C(F)(F)F)c(OC3CCOC3)n2)=C(O)C(C)(C)C1=O` (stereo not drawn) [Compound 2.021] are the same in “Post-emergence action: Chenopodium” value: 8 for the first, 8 for the second.

For `CC1(C)C(=O)C(C(=O)c2ccc(C(F)(F)F)c(N3CCOCC3)n2)=C(O)C(C)(C)C1=O` [Compound 2.073], the “Post-emergence action: Chenopodium” value was 8.

What follows are compounds tested on Stellaria (assay: Post-emergence herbicidal action (Example B2)). Details: 250 g/ha, after about 18 days, rating scale 10=total damage, 0=no action.
Assay type: in vivo
From the text: as §2

Compared with `COCCOCc1nc(C(=O)C2=C(O)CCCC2=O)ccc1C(F)(F)F` [Compound 1.126], `CC1(C)C(=O)C(C(=O)c2ccc(C(F)(F)F)c(OC3CCOC3)n2)=C(O)C(C)(C)C1=O` (stereo not drawn) [Compound 2.021] is lower in “Post-emergence action: Stellaria” value: 8 for the first, 7 for the second.

For `CC1(C)C(=O)C(C(=O)c2ccc(C(F)(F)F)c(N3CCOCC3)n2)=C(O)C(C)(C)C1=O` [Compound 2.073], the “Post-emergence action: Stellaria” value was 7.

What follows are compounds tested on Amaranthus (assay: Post-emergence herbicidal action (Example B2)). Details: 250 g/ha, after about 18 days, rating scale 10=total damage, 0=no action.
Assay type: in vivo
From the text: as §2

Going from `COCCOCc1nc(C(=O)C2=C(O)CCCC2=O)ccc1C(F)(F)F` [Compound 1.126] to `CC1(C)C(=O)C(C(=O)c2ccc(C(F)(F)F)c(OC3CCOC3)n2)=C(O)C(C)(C)C1=O` (stereo not drawn) [Compound 2.021], the “Post-emergence action: Amaranthus” value rises from 8 to 9.

For `CC1(C)C(=O)C(C(=O)c2ccc(C(F)(F)F)c(N3CCOCC3)n2)=C(O)C(C)(C)C1=O` [Compound 2.073], the “Post-emergence action: Amaranthus” value was 9.
